Here are results for 1 sequence from article PMC5706100 (Theranostics, 2017).

Test [1] relates to EAhy926 cells. Put plainly: Immunofluorescence staining of FITC-GEBP11 in hypoxia-treated cells. The test is classed as cell-based. To be noted: FITC-labelled peptide, after hypoxia treatment.
The subject of test [2] is CD31-positive plaque neovascularization. The test can be described thus: Immunofluorescence of FITC-GEBP11 and CD31 in plaque tissue sections. Details: species or system rabbit.

Positions of bridges follow the written chain, without caps; N, C: chain ends. No end group written: not given here.

As to “CTKNSYLMC (disulfide 1-9 (inferred)) [GEBP11 peptide]”, the “binding affinity to EAhy926 cells” value in test [1] is given as “high binding affinity”. For the same sequence, the “cell selectivity by immunofluorescence staining” value in test [2] (endothelial cells versus macrophages) is listed as “selectively target endothelial cells rather than macrophages”. Moreover, in test [2] (rabbit plaque tissue sections, confocal microscopy), the “co-localization with CD31 in plaque section” value was “well co-localized with CD31-positive plaque neovascularization and vasa vasorum”.
